Test results published in patent US9708255B2, “(bis)urea and (bis)thiourea compounds as epigenic modulators of lysine-specific demethylase 1 and methods of treating disorders” (priority 2009, dated 2017).

Columns and labels:
[1] = test system: global H3K4me2; conditions: P19 cell line; cited from earlier work
[2] = target: recombinant human LSD1 (Homo sapiens, UniProt O60341); assay: LSD1 demethylase assay, luminol-dependent chemiluminescence (H2O2 production); conditions: read-out: % LSD1 activity remaining, treatment with each analogue at 10 μM
Procedure: Percent of LSD1 activity remaining was determined following 24-hour treatment with 10 mM of each test compound as determined by the luminol-dependent chemiluminescence method.
The ability of the target (bis)ureas and (bis)thioureas to inhibit LSD1 was determined in an assay procedure utilizing the recombinant human enzyme. Expression and purification of LSD1 were conducted as previously reported. Enzymatic activity of LSD1 in the presence of target compounds was determined using luminol-dependent chemiluminescence to measure the production of H2O2, as previously described. […] Full-length human LSD1 cDNA was subcloned into the pET15b bacterial expression vector (Novagen, Madison, Wis.) in frame with an N-terminal 6×HIS-tag and transformed into the BL21(DE3) strain of Escherichia coli. Following selection, expression and purification of recombinant LSD1 protein were performed as previously described. Briefly, expression of LSD1-HIS protein was induced by 1 mM IPTG for 6 h at 25° C. The HIS-tagged protein was purified using Ni-NTA affinity purification resin and column as recommended by the manufacturer (Qiagen, Valencia, Calif.). Bound protein was eluted by imidazole and the eluate was dialyzed in PBS at 4° C. […] The integral values were calibrated against standards containing known concentrations of H2O2, and the activities expressed as pmols H2O2/mg protein/min. […]

[3] = test system: GATA4 mRNA; assay: Re-expression of GATA4 mRNA by qPCR in Calu-6 cells; format: cell-based, human; conditions: Calu-6, 24 hours; for effect on GATA4 levels: 5 and 10 μM
Source text: (§1) The ability of compounds 25-27 to induce the re-expression of aberrantly silenced tumor suppressor genes in vitro was next measured using the Calu-6 human lung carcinoma cell line. The tumor suppressor genes SFRP2 and GATA4 were chosen because they are known to be under expressed in human lung cancer, and because they are thought to play a role in tumorigenesis when silenced. Thus, the genes coding for these proteins are well-documented LSD1 targets. […]. […]. The increase in GATA4 mRNA caused by […] 27 is reproducible, but is not statistically significant (P>0.05).
(§2) RNA was extracted using TRIzol reagents (Invitrogen, Carlsbad, Calif.). First-strand cDNA was synthesized using SuperScript III reverse transcriptase with an oligo(dT) primer (Invitrogen). qPCR was performed using the following primers: SFRP2 sense, 5′AAGCCTGCAAAAATAAAAATGATG; SFRP2 antisense, 5′TGTAAATGGTCTTGCTCTTGGTCT (annealing at 57.4° C.); GATA4 sense, 5′GGCCGCCCGACACCCCAATCT; GATA4 antisense, 5′ ATAGTGACCCGTCCCATCTCG (annealing at 64° C.). qPCR was performed in a MyiQ single color real-time PCR machine (Bio-Rad, Hercules, Calif.) with GAPDH as an internal control.

[4] = test system: global H3K4me1; assay: Global H3K4me1 level by quantitative Western blot in Calu-6 cells; format: cell-based, human; conditions: Calu-6, 10 μM
Procedure: (§3) FIG. 2. Effect of compounds 25-27 on the expression of global H3K4me1 and H3K4me2. […] Proliferating cell nuclear antigen (PCNA) was used as a loading control. Shown are Western blot images from a single representative experiment performed in triplicate. Relative protein expression levels were determined by quantitative Western analysis using the Odyssey infrared detection system shown as bar graphs. The results represent the mean of three treatments ±SD. The protein expression level for control samples was set to a value of 1.
(§4) The ability of the target (bis)ureas and (bis)thioureas to inhibit LSD1 was determined in an assay procedure utilizing the recombinant human enzyme. Expression and purification of LSD1 were conducted as previously reported. Enzymatic activity of LSD1 in the presence of target compounds was determined using luminol-dependent chemiluminescence to measure the production of H2O2, as previously described. The results of these experiments are summarized in Table 1, and graphically in FIG. 1. […] Subsequent experiments were conducted in the Calu-6 human anaplastic non-small cell lung carcinoma line because it has a highly reproducible response to epigenetic modulation, and because it is known that various tumor suppressor genes are silenced in this line. In order for synthetic analogues to be effective at the cellular level, any observed decreases in cellular LSD1 activity should be accompanied by an increase in global H3K4me1 and H3K4me2 content. […] The reduction in H3K4me2 and corresponding increase in H3K4me1 by 26 at both 24 and 48 hours cannot be readily explained, and is the subject of continuing investigation.
(§5) Cytoplasmic and nuclear fractions were prepared for Western blot analysis using the NE-PER™ Nuclear and Cytoplasmic Extraction Kit (Pierce, Rockford, Ill.). Primary antibodies against H3K4me2 were from Millipore. The pCNA monoclonal antibody was purchased from Oncogene Research Products (Cambridge, Mass.). Dye-conjugated secondary antibodies were used for quantification of Western blot results using the Odyssey Infrared Detection system and software (LI-COR Biosciences, Lincoln, Nebr.).

[5] = test system: SFRP2 mRNA; assay: Re-expression of SFRP2 mRNA by qPCR in Calu-6 cells; format: cell-based, human; conditions: Calu-6, 24 hours; for dose dependence of SFRP2 expression increase: 5 vs 10 μM
Source text: as §1, §2

[6] = test system: global H3K4me2; assay: Global H3K4me2 level by quantitative Western blot in Calu-6 cells; format: cell-based, human; conditions: Calu-6, 10 μM
Procedure: as §3, §4, §5

[7] = test system: global H3K4me2; assay: Global H3K4me2 in HCT116 human colon tumor cells; format: cell-based; conditions: HCT116 human colon tumor cells (data not shown)
[8] = target: recombinant LSD1/CoRest complex (Homo sapiens, UniProt O60341); conditions: cited from earlier work

For `N[C@@H]1C[C@H]1c1ccccc1` (racemic) [tranylcypromine], the “global levels of H3K4me2” value [1] is listed as “increase”.

Work on `S=C(NCCCNCCCNCCCNC(=S)NCCC(c1ccccc1)c1ccccc1)NCCC(c1ccccc1)c1ccccc1` [Compound 20, 1,11-bis-{3-[1-(3,3-diphenylpropyl)thioureado]}-4,8-diazaundecane] yielded a remaining activity at 10 µM [2] of 92.2%.

For `S=C(NCCCNCCCCCCCNCCCNC(=S)NCC(c1ccccc1)c1ccccc1)NCC(c1ccccc1)c1ccccc1` [Compound 25, 1,15-bis-{3-[1-(2,2-diphenylethyl)thioureado]}-4,12-diazapentadecane], the “effect on GATA4 levels” value [3] was “did not produce significant increases”, the “global H3K4me1 level” value ([4]; 24 hours) was “significant increases” and the “global H3K4me1 level” value ([4]; 48 hours) was “most dramatic increases”. For the same molecule, the “dose dependence of SFRP2 expression increase” value [5] was “dose dependent”, the “global H3K4me2 level” value ([6]; 24 hours) was “significant increases” and the “global H3K4me2 level” value ([6]; 48 hours) was “most dramatic increases”. For the same molecule, the “increase in global H3K4me2” value [7] was 17.4 fold.

With `S=C(NCCCNCCCCNCCCNC(=S)NCC(c1ccccc1)c1ccccc1)NCC(c1ccccc1)c1ccccc1` [Compound 26, 1,12-bis-{3-[1-(2,2-diphenylethyl)thioureado]}-4,9-diazadodecane] the “effect on GATA4 levels” value [3] was “did not produce significant increases”, the “global H3K4me1 level” value ([4]; 24 hours) was “significant increase” and the “global H3K4me1 level” value ([4]; 48 hours) was “increase”. The “dose dependence of SFRP2 expression increase” value [5] was “same level”, the “global H3K4me2 level” value ([6]; 24 hours) was “decreased” and the “global H3K4me2 level” value ([6]; 48 hours) was “reduction”.

For `S=C(NCCCNCCCNCCCNC(=S)NCC(c1ccccc1)c1ccccc1)NCC(c1ccccc1)c1ccccc1` [Compound 27, 1,11-bis-{3-[1-(2,2-diphenylethyl)thioureado]}-4,8-diazaundecane], the “effect on GATA4 mRNA” value ([3]; 5 μM) was “no significant effect”, the “increase in GATA4 mRNA” value ([3]; 10 μM (b97 prints 10 mM)) was 1.3 fold and the “global H3K4me1 level” value ([4]; 24 hours) was “significant increases”. For the same molecule, the “increase in SFRP2 expression” value ([5]; 10 mM (so in the source)) was 4.8 fold, the “dose dependence of SFRP2 expression increase” value [5] was “dose dependent” and the “global H3K4me2 level” value ([6]; 24 hours) was “significant increases”.

Molecule `O=C(NCCCNCCCCNCCCNC(=O)NC(=O)N(c1ccccc1)c1ccccc1)NC(=O)N(c1ccccc1)c1ccccc1` [Compound 31, 1,12-bis-{5-[1-(N,N-diphenyl)carbamyl]ureado}-4,9-diazadodecane] has a remaining activity at 10 µM [2] of 26.1%.

In the case of `NNCCc1ccccc1` [phenelzine], the “global levels of H3K4me2” value [1] is given as “increase” and the nucleosomal demethylation [8] is given as “inactivate”.
